Results from patent publication US10849966B2, “Methods for treating netosis and neutrophil activation” (TRUSTEES OF BOSTON UNIVERSITY, priority 2017, dated 2020).
“And” between values parts separate entries of the source, which are not always exact repeats. Equal values may be shown once. “Also recorded” adds a separate entry of the source.

Assays:
[1] = system: Panc1 xenograft; assay: Panc1 xenograft model survival; conditions: in vivo
[2] = system: chronic kidney disease in Dahl S female rats; assay: CKD in Dahl S female rats fed a HSD; type: in vivo, rat; conditions: for albuminuria, effect in words / urinary albumin creatinine ratio (UACR), effect in words: 3 mg/kg iv × 1 dose, after 7 days, moderate-severe CKD; for Albuminuria / Creatinine Clearance / UACR (urinary albumin/urinary creatinine ratio) / Urinary Exosome Excretion: Mean ± SD
Description: Legend: hu-6g8, humanized anti-DEspR monoclonal antibody, HSD, high salt diet induced via 2% NaCl water to drink ad lib; CKD, Dahl salt-sensitive hypertensive rats with chronic kidney disease with moderate nephrosclerosis (Raij scores˜300) induced with a high salt diet (2% NaCl); control, non-treated age- and sex-matched CKD rats.

[3] = system: activated neutrophils; assay: dose-response survival assay of activated neutrophils (Trypan blue dye exclusion); type: cell-based; conditions: live cells counted by Trypan blue dye exclusion; listed as 6g8-humab; read-out: IC50, inhibition of activated neutrophil survival
Description: FIG. 6 depicts a graph comparison of functional activity of anti-DEspR fully humanized 6g8 mAb, 6g8-humab, and prototype murine anti-DEspR 6g8 mAb, 6g8-mumab.
FIGS. 17A-17C depict anti-DEspR-mab (hu6g8 mab). FIG. 17A depicts a diagram of DEspR, murine precursor mabs and humanized IgG and IgG4 mabs. Hu6g8 is notated as 6g8g7-hu-IgG4 raised against epitope 2, spanning the putative binding domain.
Described herein are the advantages of anti-DEspR mAb targeted AECs. DEspR, the dual endothelin1/signal peptide receptor,^9 is a validated target on human activated neutrophils and NETs. Hu6g8 binds human activated neutrophils (FIG. 18A) and NETs (FIG. 18B), as confirmed by Western Blot analysis of DEspR protein in human kidney (K), and activated neutrophil samples, act-Ns (FIG. 18C). Humanized anti-DEspR-mab (hu6g8 mab) is an ideal targeting moiety. Hu6g8 is the multi-species Human/NHPrimate/Rat reactive humanized-deimmunized anti-DEspR-mab with a hinge-stabilized IgG4S228P/kappa Fc region (FIG. 17A) to avoid (ADCC-antibody dependent cell-mediated cytotoxicity, CDC-complement dependent cytotoxicity), and to eliminate loss of targeting upon Fab arm exchange typical of native IgG4 isotype. […] Through recombinant DNA technology, the antibody design incorporates: a) avoidance of T-cell epitopes for low immunogenicity; b) optimization of heavy and light chain interactions for stability of variable domains; and, c) exclusion of destabilizing post-translational modification sites [e.g., deamidation, oxidation]. The targeting of DEspR^+ NETs, but sparing of DEspR(−) quiescent neutrophils via the anti-DEspR mAb is also novel. […] The use of human neutrophil-elastase cleavable linker is advantageous as this connector-peptide can be added by recombinant technology and HNE is enriched on NETs and actually a reason for the injurious properties of NETs. HNE is desirable for local therapeutic delivery [Owen C A, Campbell E J. J Leukocyte Biol 1999, 65 (2) 137-150], has specificity for small uncharged amino acids particularly alanine (A) and valine (V) [Meers P. Adv Drug Delivery Rev. 2001. 53 (3) 265-272]. […] The advantages of all three in an AEC is novel and robust as the targeted delivery and release of DNAse 1 on NETs can attain in vivo efficacy of what has been shown in vitro, the induction of macrophage uptake-and-clearance of NETs upon DNAse 1 digest of NETs DNA. In summary, targeting the intravascular NETs sites. The humanized anti-DEspR-mab with a hinge-stabilized IgG4/kappa Fc region to avoid Fab arm exchange in vivo and ensuing loss of targeting was selected. Additionally, this avoids immune effector functions of IgG1 mAbs (ADCC, CDC), which would worsen endothelial injury. […]

[4] = complete blood counts in Panc1-CSC xenograft (CDX) tumor model; type: in vivo, rat; conditions: CBC weekly from day 21, vs non-treated controls
Procedure: Complete blood counts (CBC) were measured weekly starting day 21-1 week after treatment onset on day 14 (14 days after Panc1-CSC xenograft (CDX) tumor establishment).

[5] = system: DEspR+/CD11b+ neutrophils; assay: ex vivo treatment of ARDS patient whole blood, neutrophil survival (FACS); type: cell-based, human; parameters: baseline DEspR+/CD11b+ neutrophil percentage: concentration or dose not given beside the values; conditions: for Observed decrease in neutrophil survival: 10 μg/ml; for baseline DEspR+/CD11b+ neutrophil percentage: equals baseline DEspR+/CD11b+ neutrophils
Procedure: Neutrophils were gated for unique size/granularity properties via FSC (size) and SSC (granularity) gating. […] FSC, forward side scatter. SSC, side scatter. N=4-5 replicates; mean+/−SD. Whole blood incubated at 37 C for 24 hours (reg incubator, rotating, in HEPES buffer) for A02 and A03. 37 C for 6 hours for A04, A05, and A06. ABTM-468(cho) at 10 ug/mL. *, P=0.0286 Mann-Whitney Rank Sum Test. ARDS patients survivors: A01, A04, A05, A06. ARDS non-survivor: A02.

## hu-6g8: fully humanized anti-DEspR mAb with a S228P hinge-stabilized IgG4/kappa FC region
[1]
  survival: increased survival
[2]
  albuminuria, effect in words: decreased
  urinary albumin creatinine ratio (UACR), effect in words: decreased
[2]; listed as ABTM-468
  albuminuria, effect in words: decreased; also recorded: reduced
  urinary albumin creatinine ratio (UACR), effect in words: decreased; also recorded: reduced
[2]; D7 (day of dosing, baseline)
  Albuminuria: 404 ± 190 mg/kg/day
  Creatinine Clearance: 104 ± 35 µL/min
  UACR (urinary albumin/urinary creatinine ratio): 25450 ± 8980
  Urinary Exosome Excretion: 663 ± 224 mg/kg/day
[2]; D14, hu-6g8 3 mg/kg IV at D7
  Albuminuria: 92.5 ± 95 mg/kg/day
  Creatinine Clearance: 168 ± 118 µL/min
  UACR (urinary albumin/urinary creatinine ratio): 2285 ± 2337
  Urinary Exosome Excretion: 876 ± 348 mg/kg/day
[3]
  IC50: < 8 nM and 7.7 nM
[4]; treatment onset day 14
  numbers of quiescent neutrophils (neutropenia side effect): does not cause decreased numbers of quiescent neutrophils
[4]
  platelet counts: does not cause decreased platelet counts
  red blood cell counts: does not cause decreased platelet counts or red blood cell counts
[5]; patient A02 (Died), incubation 24 hrs, 79 hrs from ARDS diagnosis, baseline DEspR+/CD11b+ 59.2%, P 0.029, listed as anti-DEspR humanized IgG4S228P antibody
  Observed decrease in neutrophil survival: decreased survival
[5]; patient A02
  baseline DEspR+/CD11b+ neutrophil percentage: 59.2%
[5]; patient A03 (DNR, D.), incubation 24 hrs, 96 hrs from diagnosis, baseline DEspR+/CD11b+ 1.5%
  Observed decrease in neutrophil survival: No effect
[5]; patient A03
  baseline DEspR+/CD11b+ neutrophil percentage: 1.5%
[5]; patient A04 (Surv), incubation 6 hrs, 96 hrs from diagnosis, baseline DEspR+/CD11b+ 0.9%, listed as ABTM-468
  Observed decrease in neutrophil survival: No effect
[5]; patient A04 (Surv), incubation 6 hrs, 96 hrs from diagnosis, baseline DEspR+/CD11b+ 0.9%, listed as anti-DEspR humanized IgG4S228P antibody
  Observed decrease in neutrophil survival: no effect
[5]; patient A04
  baseline DEspR+/CD11b+ neutrophil percentage: 0.9%
[5]; patient A05 (Surv), incubation 6 hrs, 72 hrs from diagnosis, baseline DEspR+/CD11b+ 3%, listed as ABTM-468
  Observed decrease in neutrophil survival: No effect
[5]; patient A05 (Surv), incubation 6 hrs, 72 hrs from diagnosis, baseline DEspR+/CD11b+ 3%, listed as anti-DEspR humanized IgG4S228P antibody
  Observed decrease in neutrophil survival: no effect
[5]; patient A05
  baseline DEspR+/CD11b+ neutrophil percentage: 3%
[5]; patient A06 (Surv), incubation 6 hrs, 48 hrs from diagnosis, baseline DEspR+/CD11b+ 16.1%, n.s., listed as anti-DEspR humanized IgG4S228P antibody
  Observed decrease in neutrophil survival: Some efficacy is observed but variable
[5]; patient A06
  baseline DEspR+/CD11b+ neutrophil percentage: 16.1%
